Reference: patent US10905688B2, “Combinations comprising substituted imidazo[1,5-α]pyrazinones as PDE1 inhibitors” (H. Lundbeck A/S, priority 2016, dated 2021)
pIC50: −log10 of the molar value.

Tests used:
Format in all cases: biochemical
PDE1C = PDE1C (Homo sapiens (Human), UniProt Q14123); test: PDE1 inhibition assay (PDE1C), SPA with tritium labelled cAMP
Method: (§1) Reactions were initiated by addition of the cyclic nucleotide substrate, and reactions were allowed to proceed for 1 h at room temperature before being terminated through mixing with 20 μL (0.2 mg) yttrium silicate SPA beads (PerkinElmer). The beads were allowed to settle for 1 h in the dark before the plates were counted in a Wallac 1450 Microbeta counter.

PDE9 = PDE9 (Homo sapiens (Human), UniProt O76083); test: PDE9 inhibition assay, SPA with 3H-cAMP
Method: A PDE9 assay may for example, be performed as follows: The assay is performed in 60 μL samples containing a fixed amount of the relevant PDE enzyme (sufficient to convert 20-25% of the cyclic nucleotide substrate), a buffer (50 mM HEPES pH 7.6; 10 mM MgCl2; 0.02% Tween20), 0.1 mg/mi BSA, 225 pCi of ^3H-labelled cyclic nucleotide substrate, tritium labeled cAMP to a final concentration of 5 nM and varying amounts of inhibitors. Reactions are initiated by addition of the cyclic nucleotide substrate, and reactions are allowed to proceed for one hr at room temperature before being terminated through mixing with 15 μL 8 mg/mL yttrium silicate SPA beads (Amersham). The beads are allowed to settle for one hr in the dark before the plates are counted in a Wallac 1450 Microbeta counter.
In the context of the present invention the assay was performed in 60 μL assay buffer (50 mM HEPES pH 7.6; 10 mM MgCl2; 0.02% Tween20) containing enough PDE9 to convert 20-25% of 10 nM ^3H-cAMP and varying amounts of inhibitors. Following a 1 hr incubation the reactions were terminated by addition of 15 μL 8 mg/mL yttrium silicate SPA beads (Amersham). The beads were allowed to settle for one hr in the dark before the plates were counted in a Wallac 1450 Microbeta counter.

PDE1A = PDE1A (Homo sapiens (Human), UniProt P54750); test: PDE1 inhibition assay (PDE1A), SPA with tritium labelled cAMP; conditions: for inhibition at 2 µM: read-out: PDE1A, % inhibition at 2 μM
Method: Reactions were initiated by addition of the cyclic nucleotide substrate, and reactions were allowed to proceed for 1 h at room temperature before being terminated through mixing with 20 μL (0.2 mg) yttrium silicate SPA beads (PerkinElmer).

PDE1B = PDE1B (Homo sapiens (Human), UniProt Q01064); test: PDE1 inhibition assay (PDE1B), SPA with tritium labelled cAMP
Method: as §1

PDE1C, sequence (Q14123 whole entry): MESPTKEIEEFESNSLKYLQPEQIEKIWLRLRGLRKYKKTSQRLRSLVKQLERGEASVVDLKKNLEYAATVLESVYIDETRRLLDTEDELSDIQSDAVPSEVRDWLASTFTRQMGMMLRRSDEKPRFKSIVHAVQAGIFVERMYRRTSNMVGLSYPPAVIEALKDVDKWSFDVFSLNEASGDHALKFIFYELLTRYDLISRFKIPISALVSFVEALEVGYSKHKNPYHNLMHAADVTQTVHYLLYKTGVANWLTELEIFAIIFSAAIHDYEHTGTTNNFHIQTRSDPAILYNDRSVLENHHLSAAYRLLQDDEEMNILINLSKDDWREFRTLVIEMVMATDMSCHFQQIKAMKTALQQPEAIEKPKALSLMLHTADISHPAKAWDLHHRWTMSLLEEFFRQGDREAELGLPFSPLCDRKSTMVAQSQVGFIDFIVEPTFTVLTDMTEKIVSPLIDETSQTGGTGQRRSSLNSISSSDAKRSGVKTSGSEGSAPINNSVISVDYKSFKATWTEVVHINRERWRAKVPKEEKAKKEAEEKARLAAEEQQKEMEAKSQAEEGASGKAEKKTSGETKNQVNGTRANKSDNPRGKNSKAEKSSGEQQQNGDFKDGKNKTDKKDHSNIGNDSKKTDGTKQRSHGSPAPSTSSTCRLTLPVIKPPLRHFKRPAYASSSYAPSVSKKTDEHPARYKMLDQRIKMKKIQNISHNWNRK
PDE9, sequence (O76083 whole entry): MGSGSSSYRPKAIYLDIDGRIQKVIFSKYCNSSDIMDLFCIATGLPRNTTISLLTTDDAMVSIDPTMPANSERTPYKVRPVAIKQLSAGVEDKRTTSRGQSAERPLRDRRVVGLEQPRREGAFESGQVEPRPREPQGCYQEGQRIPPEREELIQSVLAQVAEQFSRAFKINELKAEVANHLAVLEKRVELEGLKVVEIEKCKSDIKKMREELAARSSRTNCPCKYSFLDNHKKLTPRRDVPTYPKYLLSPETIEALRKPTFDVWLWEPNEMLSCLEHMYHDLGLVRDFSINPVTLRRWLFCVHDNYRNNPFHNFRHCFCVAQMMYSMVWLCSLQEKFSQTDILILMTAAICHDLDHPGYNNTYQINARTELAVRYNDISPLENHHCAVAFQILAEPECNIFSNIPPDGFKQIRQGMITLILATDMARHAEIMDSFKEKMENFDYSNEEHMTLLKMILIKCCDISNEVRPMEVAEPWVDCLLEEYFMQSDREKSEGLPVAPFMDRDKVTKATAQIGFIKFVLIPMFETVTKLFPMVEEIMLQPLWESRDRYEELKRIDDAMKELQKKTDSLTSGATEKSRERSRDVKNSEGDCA
PDE1A, sequence (P54750 whole entry): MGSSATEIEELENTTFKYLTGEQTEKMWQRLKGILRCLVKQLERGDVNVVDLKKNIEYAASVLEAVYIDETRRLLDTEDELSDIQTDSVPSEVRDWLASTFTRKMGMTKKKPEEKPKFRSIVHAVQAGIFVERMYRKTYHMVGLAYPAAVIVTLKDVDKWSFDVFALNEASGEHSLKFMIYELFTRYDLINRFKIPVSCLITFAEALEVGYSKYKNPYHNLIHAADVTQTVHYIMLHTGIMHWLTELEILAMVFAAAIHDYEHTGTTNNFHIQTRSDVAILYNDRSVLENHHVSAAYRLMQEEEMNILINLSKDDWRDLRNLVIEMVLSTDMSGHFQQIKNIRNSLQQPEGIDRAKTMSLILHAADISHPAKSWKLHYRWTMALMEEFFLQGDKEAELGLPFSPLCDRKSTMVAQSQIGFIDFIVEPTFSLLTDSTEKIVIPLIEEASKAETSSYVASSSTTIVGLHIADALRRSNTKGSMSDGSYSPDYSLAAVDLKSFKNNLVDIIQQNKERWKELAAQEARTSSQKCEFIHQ
PDE1B, sequence (Q01064 whole entry): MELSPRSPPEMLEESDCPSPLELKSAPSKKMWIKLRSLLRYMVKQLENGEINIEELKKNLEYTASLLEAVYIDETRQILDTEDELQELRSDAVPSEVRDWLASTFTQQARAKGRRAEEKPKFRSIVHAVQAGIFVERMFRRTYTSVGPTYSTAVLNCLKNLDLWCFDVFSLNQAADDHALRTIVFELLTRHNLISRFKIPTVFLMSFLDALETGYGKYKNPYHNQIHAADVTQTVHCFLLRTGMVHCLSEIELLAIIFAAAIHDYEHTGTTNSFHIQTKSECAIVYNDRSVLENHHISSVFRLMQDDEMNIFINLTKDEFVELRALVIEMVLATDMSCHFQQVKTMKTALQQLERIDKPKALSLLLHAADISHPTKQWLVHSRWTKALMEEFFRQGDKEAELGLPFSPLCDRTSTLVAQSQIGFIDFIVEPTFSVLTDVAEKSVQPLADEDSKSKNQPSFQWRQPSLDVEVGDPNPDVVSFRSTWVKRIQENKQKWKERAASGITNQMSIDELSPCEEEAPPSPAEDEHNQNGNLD

Row | Compound | pIC50 (PDE1C) | % inhibition of PDE9 at 10 microM (PDE9) | pIC50 (PDE1B) | further results
1 | Cc1cn2c([C@H]3C[C@H]3F)ncc2c(=O)n1Cc1cccc(F)c1 (single isomer, unassigned; isomer 2) [38, isomer 2] | 6.82 | 2% |  | 
2 | Cc1cn2c(N3CCC4OCC[C@H]43)ncc2c(=O)n1Cc1cccc(F)c1 (single isomer, unassigned; isomer 1) [99, isomer 1] | 7.57 | 9% | 6.87 | pIC50 (PDE1A): 6.62
3 | CCc1ccccc1Cn1c(C)cn2c(C3CCOCC3)ncc2c1=O [Example 49, 7-(2-ethylbenzyl)-6-methyl-3-(tetrahydro-2H-pyran-4-yl)imidazo[1,5-a]pyrazin-8(7H)-one] |  |  |  | inhibition at 2 µM (PDE1A): 44%
4 | Cc1cn2c(C3CCOCC3)ncc2c(=O)n1Cc1cccc(C#N)c1 [Example 45, 3-((6-methyl-8-oxo-3-(tetrahydro-2H-pyran-4-yl)imidazo[1,5-a]pyrazin-7(8H)-yl)methyl)benzonitrile] |  |  |  | inhibition at 2 µM (PDE1A): 64%
5 | Cc1cn2c([C@@H]3C[C@@H]3F)ncc2c(=O)n1Cc1cccc(F)c1 (single isomer, unassigned; isomer 1) [37, isomer 1] | 6.46 | −2% |  | 
6 | Cc1cn2c(N3CCC4OCC[C@@H]43)ncc2c(=O)n1Cc1cccc(F)c1 (single isomer, unassigned; isomer 2) [99, isomer 2] | 6.92 | 6% | 6.12 | PDE1A, % inhibition at 10 μM (PDE1A; at 10 μM): 47%
7 | Cc1cn2c([C@@H]3C[C@H]3F)ncc2c(=O)n1Cc1cccc(F)c1 (single isomer, unassigned; isomer 1) [38, isomer 1] |  | −1% |  | 
8 | Cc1cn2c([C@H]3C[C@@H]3F)ncc2c(=O)n1Cc1cccc(F)c1 (single isomer, unassigned; isomer 2) [37, isomer 2] | 7.26 | 13% |  | 
9 | COc1ccc(Cn2c(C)cn3c([C@H]4CCO[C@@H]4C)ncc3c2=O)cc1 (single isomer, unassigned; isomer 3) [55, isomer 3] |  |  | 8.52 | 
